Reference: patent US20010056085A1, “Methods of using vesicant drug formulations” (priority 1996, published 2001)
“And” between values parts separate entries of the source, which are not always exact repeats. Equal values may be shown once. Read-outs that look alike come from different tables or passages of the source.

Experiment: Half-life of ADR destruction by UVA light in the presence of test compounds (decrease in absorbance at 480 nm)
Assay type: physicochemical
[1] = UVA light, 100 μM test compound alone
[2] = UVA light, 100 μM test compound with 0.5 μM riboflavin

| SMILES | Half-Life of ADR Destruction, 100 μM Test Compound [1] [min] | Half-Life of ADR Destruction, 100 μM Test Compound and 0.5 μM Riboflavin [2] | Half-Life of ADR Destruction, 100 μM Test Compound and 0.5 μM Riboflavin [min] | Half-Life of ADR Destruction, 100 μM Test Compound [min] |
| --- | --- | --- | --- | --- |
| O=c1ccoc2ccccc12 [Compound 4-Chromone, 4-Chromone] | 43.0 |  |  |  |
| Cn1c(=O)[nH]c2[nH]c(=O)[nH]c2c1=O [1-Methyl Uric acid] |  | 33.4 min |  |  |
| COc1ccc2[nH]ccc2c1 [5-Methoxy Indole] |  | 25.1 min and 14.3 min |  |  |
| O=C(O)c1cc2ccccc2o1 [2-Benzofurancarboxylic acid] |  | 50.2 min |  |  |
| O=c1[nH]c(=O)c2[nH]cnc2[nH]1 [Xanthine] | 50.2 | 16.7 min |  |  |
| O=C(O)C=Cc1ccc2ccccc2c1 [3-(2-Naphthyl)acrylic acid] |  | 43.0 min |  |  |
| COc1ccc2c(C)c(C)[nH]c2c1 [6-Methoxy-2,3-dimethyl Indole] | 43.0 | 23.2 min |  |  |
| Cc1c(N)cccc1CO [3-Amino-2-Methyl Benzyl Alcohol] |  | 33.5 min |  |  |
| O=C(O)c1cccc2c1-c1ccccc1C2 [4-Fluorene Carboxylic acid] | 30.1 | 18.8 min |  |  |
| c1ccc2occc2c1 [Benzofuran] |  | 75.3 min |  |  |
| O=C(O)C(C(=O)O)c1ccsc1 [Thiophene-3-malonic acid] |  | 43.0 min |  |  |
| COc1ccc(C=O)c2ccccc12 [4-Methoxy-1-naphthaldehyde] | 1.15 | 1.19 min |  |  |
| COc1cc2ccc(=O)oc2cc1O [7-Hydroxy-6-methoxycoumarin] | 33.5 | 33.5 min |  |  |
| O=c1[nH]c(=O)c2[nH]c(=O)[nH]c2[nH]1 [Uric acid] |  | 21.5 min |  |  |
| COc1ccc(C[C@H](N)C(=O)O)cc1 [4-Methoxy Phenylalanine] |  | 15.1 min |  |  |
| O=C(C(=O)c1ccco1)c1ccco1 [Furil] | 43.0 | 33.5 min |  |  |
| Nc1cccc(Oc2ccccc2)c1 [3-Phenoxyaniline] | 43.0 | 12.5 min |  |  |
| Nc1cc(F)cc(F)c1 [3,5-Difluoro Aniline] |  | 15.1 min |  |  |
| Cc1cc(C(=O)O)ccc1N [4-Amino-3-Methyl Benzoic Acid] |  | 15.8 min |  |  |
| Nc1cc(N)cc(CO)c1 [3,5-Diamino Benzyl Alcohol] |  | 75.3 min |  |  |
| Cn1c(=O)c2[nH]c(=O)[nH]c2n(C)c1=O [1,3-Dimethyl Uric acid] | 75.3 | 21.5 min |  |  |
| Cc1cc(C)cc(N)c1 [3,5-Dimethyl Aniline] |  | 100.4 ± 70.9 min |  |  |
| CCc1cccc2c3c([nH]c12)C(CC)(CC(=O)O)OCC3 (stereo not drawn) [Etodolac, reference compound] | 33.5 | 6.41 min |  |  |
| CCCCc1ccccc1N [2-Butyl Aniline] |  | 10.2 min |  |  |

| SMILES | Half-Life of ADR Destruction, 100 μM Test Compound [1] [min] | Half-Life of ADR Destruction, 100 μM Test Compound and 0.5 μM Riboflavin [2] | Half-Life of ADR Destruction, 100 μM Test Compound and 0.5 μM Riboflavin [min] | Half-Life of ADR Destruction, 100 μM Test Compound [min] |
| --- | --- | --- | --- | --- |
| O=C1c2c(O)cccc2Cc2cccc(O)c21 [1,8-Dihydroxyanthrone] | 27.4 | 30.1 min |  |  |
| Nc1ccccc1CCO [2-Amino Phenylethyl Alcohol] |  | 13.7 min |  |  |
| Nc1cc(N)cc(C(=O)O)c1 [3,5-Diamino Benzoic Acid] |  | 75.3 min |  |  |
| O=C(O)c1cc2c(cc1C(=O)O)C(=O)c1ccccc1C2=O [Anthraquinone-2,3-dicarboxylic acid] | 1.57 |  |  |  |
| c1ccc2cocc2c1 [Compound 2-Benzofuran, 2-Benzofuran] | 23.2 |  |  |  |
| Nc1ccc(OC(F)(F)F)cc1 [4-(Trifluoromethyoxy) Aniline] |  |  | 43.0 |  |
| O=c1nc2[nH]c3ccccc3nc-2c(=O)[nH]1 [Alloxazine] | 2.21 | 1.89 min |  |  |
| Cc1cc2ccccc2[nH]1 [2-Methyl Indole] |  | 7.00 min |  |  |
| Nc1ccc(OCc2ccccc2)cc1 [4-Benzyloxyaniline] | 100.3 | 100.3 min |  |  |
| COc1cc(C=CC=O)ccc1O [3-Methoxy-4-Hydroxy Cinnamaldehyde] |  | 50.2 min |  |  |
| Nc1cccc(CO)c1 [3-Amino Benzyl Alcohol] |  | 7.34 min |  |  |
| COc1ccc(C(C)=O)c(O)c1 [2′-Hydroxy-4-methoxyaceotphenone] |  |  |  | 75.3 |
| Cc1[nH]c2ccccc2c1CC(=O)O [2-Methylindole-3-acetic acid] |  | 4.57 ± 2.92 min |  |  |
| COc1ccc2[nH]cc(CC(=O)O)c2c1 [5-Methoxyindole-3-acetic acid] | 17.7 | 3.67 min |  |  |
| NCCc1ccc(O)cc1 [4-Hydroxy Phenethylamine (Tyramine), 4-Hydroxy Phenethylamine] |  | 33.5 min |  |  |
| CC(=O)Oc1c[nH]c2ccccc12 [3-Acetoxyindole] | 25.1 | 5.90 min |  |  |
| N[C@@H](Cc1c[nH]c2ccc(O)cc12)C(=O)O [5-Hydroxy-tryptophan] |  | 301.0 min |  |  |
| O=C(O)c1cc2ccccc2oc1=O [Coumarin-3-carboxylic acid] | 23.2 | 21.5 min |  |  |
| COc1ccc2cc[nH]c2c1 [6-Methoxy Indole] | 33.5 | 6.27 min |  |  |
| COc1ccc2[nH]cc(CCO)c2c1 [5-Methoxy-3-indoleethanol] | 33.5 | 9.12 min |  |  |
| Nc1cccc2c1Cc1ccccc1C2 [1-Amino-9,10-dihydroanthracene] | 75.3 | 75.3 min |  |  |
| NC(C(=O)O)c1ccc(O)cc1 (stereo not drawn) [4-Hydroxy Phenylglycine] |  | 24.2 ± 19.0 min |  |  |
| CC(=O)c1ccc[nH]1 [2-Acetyl Pyrrole] | 50.2 | 30.1 min |  |  |
